SMILES strings stand for the structures.

Holding throughout (assay type): cell-based
Assay [1] deals with UWB1.289 + BRCA1 human ovarian cancer cell line. Kind of assay: MTT cytostatic-cytotoxic activity, UWB1.289+BRCA1. The following applies: for GI50 / IC50: Homo sapiens, UWB1289, UWB1.289+BRCA1, 48 h treatment; for IC50: kills 50% of the cells; for TGI: UWB1.289+BRCA1, 48 h treatment. On the procedure:
Human ovarian adenocarcinoma cells, derived from UBWB1,289, in which the presence of the BRCA1 gene has been restored. […] They are not susceptible to ionizing radiation and radioimmune chemical agents (e.g., alkylating agents). Also, UWB1.289 cells have mutated the p53 tumor suppressor gene, and are positive for the expression of cytokeratin 7 (CK-7), calretinin and Wilms' tumor protein (WT).
(§1) All cancer cell lines are stored in a liquid nitrogen tank in 2.5 ml cryovials (Corning-Costar, Cambridge, Mass.). DMSO (dimethylsulfoxide) act as a cryoprotectant and is added to prevent the formation of ice crystals which may lyse the cells. The Cells were grown as monolayer cultures in T-75 flasks (Corning-Costar, Cambridge, Mass.) and maintained at 37° C. in 5% CO2 incubator & 100% relative humidity. The cultures medium used are McCoy's 5a Medium, supplemented with 10% fetal bovine serum (FBS, Gibco) and 1% antibiotics (100 IU/ml penicillin/100 µg/ml streptomycin), sterilized by filtration (Corning-Costar filter, diameter 0.2 μm, RPMI-1640 and 50% RPMI-1640 (Catalog No 30-2001) plus 50% Mammary Epithelial Growth Medium (MEGM), supplemented with 10% fetal bovine serum (FBS, Gibco) and 1% antibiotics (100 IU/ml penicillin/100 μg/ml streptomycin). The passage is performed every 3-4 to days as follows: Cells are washed with sterile PBS (Phosphate buffered saline): 8 g/l NaCl, 0,2 g/l KCl, 1,15 g/l Na2HPO4καl 0,2 g/l KH2PO4. pH:7,4), add 2-3 ml 0.05% trypsin (Gibco 1:250) and 0.02% EDTA to cover the monolayer and incubate the flask at 3TC for 5-10 minutes. Trypsin-EDTA, is used mainly to detach the cells from the flask and prepare a single cell suspension. Finally, the number of cells can be determined by direct counting using a Neubauer chamber and cell viability is determined by staining the cells with trypan blue.
(§2) In the experimental study the in vitro effect of the compound type (I) was evaluated against ovarian cancer cell lines UWB1.289, UWB1.289+BRCA1 Kai SKOV-3.The cells were plated in 96-well plate (MTP) at a density of 1×10^4cells/m1 per well and maintained for 72 h at 3TC in a 5% CO2 incubator and grown as monolayers. The selection of the initial number of cells was made according to the rate of proliferation of the cell line, in order the cells throughout the experiment are in an exponential (log) growth phase. After 24 hours, cells were treated with 1-100 μmol/l of the tested compounds for 48 h. Experiments were carried out using triplicate wells. The viability of cultured cells was estimated by an (3-(4,5-imethylthiazol-2-yl)-2,5-diphenyltetrazolium bromide (MTT) metabolic assay as described previously (Finlay G J, Wilson W R and Baguley B C: Comparison of in vitro activity of cytotoxic drugs towards human carcinoma and leukaemia cell lines. Eur J Cancer Clin Oncol 22: 655-662, 1986; Alley M C, Scudiero D A, Monks A, Hursey M L, Czerwinski M J, Fine D L, et al. Feasibility of drug screening with panels of human tumor cell lines using a microculture tetrazolium assay. Cancer Res 1988; 48:589-601). MTT (Sigma, St Louis, Mo., USA) was dissolved in PBS in a concentration of 5 mg/ml, filter sterilized, and stored at 4° C. MTT (50 μl of stock solution) was added to each culture and incubated for 3 h at 3TC to allow metabolization. Formazan crystals were solubilized by DMSO (100 μl). Absorbance of the converted dye was measured at a wavelength of 540nm on ELISA reader (BioTek, Winooski, Vt., USA).
(§3) GI50: The mean concentration that causes 50% inhibition of cell growth (Growth Inhibition 50%). The calculation of the value is based on the formula: (Tt72x)−(Ct24)/(Ct72)-(Ct24)×100=50
TGI: The mean concentration that causes 100% inhibition of cell growth (Total Growth Inhibition). The value is calculated according to the formula: (Tt72x)−(Ct24)/(Ct72)−(Ct24)×100=0
IC50: The mean concentration that kills 50% of the cells (Inhibition Concentration 50%). The value is calculated according to the formula: (Tt72x)−(Ct24)/(Ct24)×100=[…]

In assay [2] the test system is OVCAR-3 human ovarian cancer cell line. Nature of the assay: MTT cytostatic-cytotoxic activity, OVCAR-3. The settings on record: OVCAR-3, 48 h treatment; for GI50 / IC50: Homo sapiens; for IC50: kills 50% of the cells. The protocol: SKOV-3 (SKOV-3) (ATCC HTB 77) and OVCAR-3 (ATCC® HTB-161™)
Human ovarian adenocarcinoma cells, which are grown easily in monolayer culture with epithelial-like morphology. SKOV-3 are resistant to tumor necrosis factor (TNF) and to other cytotoxic drugs such as cisplatin, and adriamycin, while OVCAR-3 are resistant to adriamycin, cisplatin and melphalan. These cell lines express androgens, estrogens and progesterone receptors. When SKOV-3 or OVCAR-3 cells are subcutaneously implanted in nude mice, SCID mice, a moderately differentiated tumor develops, and the resulting model resembles primary ovarian adenocarcinoma in humans.
as §1, §2, §3
TGI: The mean concentration that causes 100% inhibition of cell growth (Total Growth Inhibition). […]

Assay [3] deals with T-47D human breast cancer cell line. Nature of the assay: MTT cytostatic-cytotoxic activity, T-47D. The following applies: 48 h treatment; for GI50 / IC50: Homo sapiens, T47D; for GI50: 48 h; for IC50: kills 50% of the cells.
Assay [4] deals with all 9 human cancer cell lines. Kind of assay: MTT cytostatic-cytotoxic activity, all 9 human cancer cell lines.

In the case of `COc1cc(Cc2nnc3sc(/C=C/c4ccc(F)cc4)nn23)c(S(=O)(=O)N(C)C)cc1OC` [TS25, 3-[2-(N,N-dimethylsulfamoyl)-4,5-dimethoxybenzyl]-6-(E)-4-fluorostyryl-1,2,4-triazolo[3,4-b]-1,3,4-thiazole], the GI50 is 5 µM in assay [1], 24 µM in assay [2] and 12 µM in assay [3]. For the same molecule, the IC50 in assay [1] was determined as 36 µM; in assay [2], 94 µM; in assay [3], 76 µM. The concentration for total growth inhibition (TGI) amounted to 12 µM in assay [1], 68 µM in assay [2] and 34 µM in assay [3].

Turning to `COc1cc(Cc2nnc3sc(/C=C/c4ccc(Cl)cc4)nn23)c(S(=O)(=O)N(C)C)cc1OC` [TS26, 3-[2-(N,N-dimethylsulfamoyl)-4,5-dimethoxybenzyl]-6-(E)-4-chlorostyryl-1,2,4-triazolo[3,4-b]-1,3,4-thiazole], in assay [1], the GI50 stood at 11 µM, the IC50 amounted to 54 µM and the TGI is 37 µM. In assay [2], this molecule had a GI50 of 41 µM, an IC50 above 100 µM and a TGI of 87 µM. Also, in assay [3], the TGI was above 100 µM, the GI50 was 78 µM and the IC50 was above 100 µM.

On to `COc1ccc(Cc2nn3c(Cc4cc(OC)c(OC)cc4S(=O)(=O)N(C)C)nnc3s2)cc1` [TS50, 3-[2-(N,N-dimethylsulfamoyl)-4,5-dimethoxybenzyl]-6-(4-methoxybenzyl)-1,2,4-triazolo[3,4-b]-1,3,4-thiazole], for which the values for the GI50 in assay [1], in assay [2] and in assay [3] were 16 µM, 5 µM and 28 µM, respectively. The IC50 in assay [1], in assay [2] and in assay [3] was above 100 µM each time. In addition, the TGI in assay [1] was above 100 µM; in assay [2] it was 86 µM; in assay [3], above 100 µM.

Take `COc1cc(Cc2nnc3sc(-c4ccccc4N)nn23)c(S(=O)(=O)N(C)C)cc1OC` [TS57, 3-[2-(N,N-dimethylosulfamoyl)-4,5-dimethoxybenzyl]-6-(2-aminophenyl)-1,2,4-triazolo[3,4-b]-1,3,4-thiazole]: in assay [1], the GI50 turned out to be 85 µM, the IC50 is above 100 µM and the TGI is above 100 µM. In assay [2], this molecule came in with a GI50 of 95 µM, an IC50 above 100 µM and a total growth inhibition concentration (TGI) above 100 µM. In assay [3], this molecule displayed a TGI above 100 µM, a GI50 above 100 µM and an IC50 above 100 µM.

As to `COc1cc(Cc2nnc3sc(Cc4ccccc4)nn23)c(S(=O)(=O)N(C)C)cc1OC` [TS62, 3-[2-(N,N-dimethylsulfamoyl)-4,5-dimethoxybenzyl]-6-benzyl-1,2,4-triazolo[3,4-b]-1,3,4-thiazole], the GI50 in assay [1] is 8 µM; in assay [2], 8 µM; in assay [3] it was 24 µM. Besides, the IC50 in assay [1], in assay [2] and in assay [3] was above 100 µM throughout. Besides, the TGI in assay [1] was 64 µM; in assay [2], 68 µM; in assay [3] it was above 100 µM.

For `COc1cc(Cc2nnc3sc(-c4ccc(Cl)cc4)nn23)c(S(=O)(=O)N(C)C)cc1OC` [TS63, 3-[2-(N,N-dimethylsulfamoyl)-4,5-dimethoxybenzyl]-6-(4-chlorophenyl)-1,2,4-triazolo[3,4-b]-1,3,4-thiazole], the GI50 in assay [1] stood at 8 µM; in assay [2] it was 3 µM; in assay [3], 27 µM. Further, the IC50 in assay [1], in assay [2] and in assay [3] was above 100 µM throughout. The total growth inhibition concentration (TGI) in assay [1] came out at 64 µM; in assay [2], 32 µM; in assay [3] it was 55 µM.

As for `COc1cc(Cc2nnc3sc(-c4ccc(N)cc4)nn23)c(S(=O)(=O)N(C)C)cc1OC` [TS71, 3-[2-(N,N-dimethylsulfamoyl)-4,5-dimethoxybenzyl]-6-(4-aminophenyl)-1,2,4-triazolo[3,4-b]-1,3,4-thiazole], in assay [1], the GI50 worked out at 90 µM, the IC50 was above 100 µM and the TGI is above 100 µM. In assay [2], this molecule displayed a GI50 of 97 µM, an IC50 above 100 µM and a TGI above 100 µM. In assay [3], this molecule yielded a TGI above 100 µM, a GI50 above 100 µM and an IC50 above 100 µM.

Turning to `COc1cc(Cc2nnc3sc(-c4ccccc4)nn23)c(S(=O)(=O)N(C)C)cc1OC` [TS167, 3-[2-(N,N-dimethylsulfamoyI)-4,5-dimethoxy-benzyl]-6-phenyl-1,2,4-triazolo[3,4-b]-1,3,4-thiazole], the GI50 is 76 µM in assay [1]; 65 µM in assay [2]; 52 µM in assay [3]; below 100 µM in assay [4] (in all 9 human cancer cell lines, read-out: IG50 (cytostatic)). Besides, the IC50 in assay [1] was above 100 µM; in assay [2] it was above 100 µM; in assay [3], above 100 µM; in assay [4] (Homo sapiens, read-out: (cytotoxic)), above 100 µM. For the same molecule, the TGI in assay [1], in assay [2] and in assay [3] was above 100 µM each time.

The TGI is the concentration at which net growth stops.

For the origin of these results see patent publication US10513529B2, “1,2,4-triazolo-[3,4-b]-1,3,4-thiadiazole derivatives” (GALENICA S.A., priority 2016, dated 2019).
